For test [1], the system named is phosphorylated ERK, CREB, Akt, P38, MEK in cortical neurons. Put plainly: Western blot detection of signaling proteins in cortical neurons. The test is classed as cell-based, rat. The note with it: cortical neurons 7DIV, 0.1-10 μM, 15 min (FIGS. 16, 18, 20). (In western blotting, separated proteins are transferred to a membrane and probed.)
In test [2] the test system is Aβ25-35-treated primary cortical neurons. Briefly: Cortical neuron survival assay with amyloid-beta peptide insult (MTT). The test is classed as cell-based, rat. The note with it: for cell survival of cortical neurons treated with Aβ25-35 (MTT): 50 μM, except GAG-C69 at 30 μM, Aβ25-35 10 μM (FIG. 19). As to the method:
FIG. 4. […] After overnight incubation, the MTT assay was performed. Cell survival was calculated as a percentage compared to vehicle control (“CTL no Abeta”).
Exogenous addition of amyloid beta peptide (Aβ) initiates cell death of neuronal cultures via apoptosis.
The cells were then incubated with test samples and amyloid-beta peptide fragment 25-35 (Aβ, 10 μM, Sigma) in growth medium. A tetrazole, 3-(4,5-Dimethylthiazol-2-yl)-2,5-diphenyltetrazolium bromide (MTT, 5 mg/ml) was added to the medium at a ratio of 1:10 after 24-hr incubation. MTT is reduced by living cells into purple formazan and further solubilized in 20% SDS solution; therefore, the colored solution was measured by spectrophotometer and cell viability was quantified.

Test [3] has as its system glutamate-induced excitotoxicity in cortical neurons. Briefly: Glutamate survival assay (LDH release). The test is classed as cell-based, rat. The note with it: 30 μM; glutamate 10-200 μM, all concentrations examined. As to the method:
FIG. 34. GAG-C73 decreases primary neuron cell death induced by high doses of glutamate. Cortical neurons were incubated with GAG-C73 (30 μM) or DMSO control for 2 hrs, followed by co-treatment with differing concentrations of glutamate (10-200 μM) for 20 min. LDH release into the medium was then measured.
Glutamate is the physiological neurotransmitter that activates NMDA receptors. However, excess amounts of glutamate can result in excitotoxicity and potential cell death. Survival assays were conducted to determine the ability of GAG-C73 to effectively protect neuronal cells from glutamate-induced excitotoxicity.

Another test deals with NMDA receptor. Briefly: Whole-cell patch clamp. The test is classed as cell-based, rat. The note with it: hippocampal neurons, −70 mV. As for the experimental part:
FIG. 31. GAG-C73 inhibits NMDA-induced current in hippocampal neurons. The effects of GAG-C73 on NMDA-activated currents in rat hippocampal neurons (11DIV) were examined using whole-cell patch clamp studies. Addition of NMDA induced depolarization and initiated an inward current in pyramidal cells. A. Examples of NMDA-activated currents before, during, and after application of GAG-C73 (30 μM) are shown. Horizontal bars denote GAG-C73 application. B-C. […] DMSO was used as a solvent control. The concentration of glycine was 0.1 μM, and membrane potential was held at −70 mV. n=10; three independent experiments were performed. *=P<0.05.
The NMDA receptor is a gated ion channel, which allows inflow of current during a nerve impulse. Antagonists to the receptor would prevent the inflow of current.
Hippocampal neurons were plated onto PDL-coated 35 mm dishes (NUNC) at a density of 3×10^5 cells per plate. Half of the medium was changed with NB, B27 and […] L-glutamine every 2 to 3 days. On day 12 in vitro (12DIV), whole-cell patch clamp study was performed. […] Holding potential of patched cells was kept at −70 mV and currents were recorded using Axopatch-200B amplifier (Axon Instruments, USA). […] Data was analyzed by pClamp9 software and percentage of inhibition on NMDA-induced current was' represented in comparison to a DMSO solvent control.
A general note: In patch-clamp work, channel activity is measured electrically.

In test [4] the test system is NMDA receptor-induced excitotoxicity in primary cortical neuronal cells. Briefly: NMDA survival assay (LDH release). On the technique in general: LDH in the medium is a marker of cell lysis.
Procedure: Embryonic rat cortical neurons (11 DIV) were pre-treated with various concentrations of AG—0 (0.1 -30 μg/mL) and then co-incubated with NMDA (20 μM). After 20 min, the medium was replaced with fresh medium, and after overnight incubation lactate dehydrogenase (LDH) released into the medium was measured. Cell death was calculated as a percentage compared to solvent control (“CTL without NMDA”). Assays were conducted in duplicate and repeated at least twice. *=P<0.05.
Cortical neurons were plated on 48-well plate (Nunc) at a density of 1.1×10^5 cells per well and cultured for 11-12 days (11-12 DIV). Neurons were pre-treated with the test compounds for 2 hours prior to N-Methyl-D-Aspartate (NMDA, Sigma) or glutamate (MSG, Sigma) treatment. Briefly, the neurons were rinsed with Locke's solution (5 mM potassium chloride, 128 mM sodium chloride, 2.7 mM calcium chloride, 1 mM di-sodium hydrogen orthophosphate, 5 mM HEPES and 10 mM glucose in Milli-Q water) without Mg^2+, followed by incubation in Locke's solution with addition of glycine (0.1 μM) for 15 minutes. After the incubation, the neurons were co-treated with the test compound (dissolved in Locke's plus glycine solution) and NMDA (20 μM) or glutamate for 20 min. Neurons were then rinsed with Locke's solution containing Mg^2+ and replaced with fresh growth medium. Cell death was assayed and quantified using the lactate dehydrogenase release assay (Cytotoxicity Detection Kit, Roche). Data was compared to a DMSO vehicle control and represented in mean±SEM. The student t-test was used for statistical analysis.
For test [5], the system named is cyclic AMP response (CRE) element. Put plainly: CRE-dependent transcription assay (luciferase). The test is classed as cell-based, rat. To be noted: hippocampal neurons 12DIV, 50 μM, 6 hours. As for the experimental part: FIG. 41. GAG compounds enhance CRE-dependent transcription activity. GAG-C14 (a), GAG-C53 (b), GAG-C63 (c), GAG-C69 (d), GAG-C84 (e), GAG-C111 (f), GAG-C122 (g), GAG-C123 (h), and GAG-C129 (i) induce CRE-dependent transcriptional activity in cultured hippocampal neurons. On the day of cell seeding, hippocampal neurons were transfected with a firefly luciferase reporter plasmid containing cyclic AMP response (CRE)-element. The cells at 12 DIV were then treated with 50 μM of AG compounds for 6 hours. Data are mean±SEM (n=3-4), *=P<0.05, **=P<0.01, and ***=P<0.005 versus vehicle-treated cells (0 μM), student's t test.
Cultured hippocampal neurons were transfected with a firefly luciferase reporter plasmid containing a cyclic AMP response (CRE) element. At 12DIV, the cells were treated with 50 μM of compound for 6 hours, then CRE-dependent transcription activity was assayed by measuring luciferase levels.
Freshly isolated embryonic cortical neurons were transfected with a luciferase reporter gene (Cre-Luc) linked to CREB activation following the ACM lipofectamine method using Lipofectamine 2000, a cationic liposome based reagent (Invitrogen). […] Transfection was performed using 1 μL Lipofectamine 2000 and 0.4 μg DNA per well. Neurons were then treated with test samples for time periods of 6 hours. After treatment, the cells were washed with ice-cold DPBS and 100 μL of 1× luciferase lysis buffer (Promega) was added. The plates were placed in −20° C. to freeze the cells, after which they were thawed to facilitate lysis. The lysates were transferred onto white bottom plates and assayed for renilla luciferase using the luciferase assay kit (Promega). Increased CREB activation in the neurons leads to an enhanced luciferase production and this was quantified using a Promega GloMax™ 96 microplate luminometer. […] BDNF and rolipram were used as positive controls.

The subject of a further test is cleaved-caspase-3. Put plainly: Caspase-3 expression in cortical neurons in the presence of amyloid-beta peptide (Western blot). To be noted: 10-50 μg/mL in the presence of Aβ25-35 (10 μM), overnight. The test is classed as cell-based, rat. As for the experimental part: FIG. 5. Adelostemma gracillimum refined fraction inhibits caspase-3 production in primary cortical neurons induced by Aβ. Primary cortical neuron cultures (7DIV) were treated with various concentrations of AG-0 (10-50 μg/mL) in the presence of Aβ25-35 (10 μM). Proteins were extracted after overnight incubation and Western blot analysis was performed. Blots were probed with antibodies against caspase-3 and ERK protein. Staurosporine (STS, 10 μM) was used as a positive control, while DMSO served as the vehicle control.
The cells were then incubated with test samples and amyloid-beta peptide fragment 25-35 (Aβ, 10 uM, Sigma) in growth medium.

Data on two compounds can be found in US9150608B2, “Neuro-protective compounds and their use” (Biotechnology Research Corp. Ltd., priority 2010, dated 2015).

Structures are written as SMILES.

As to `C=C(C)[C@@H]1CCC2(C(=O)O)CC[C@]3(C)C(=CCC4[C@@]5(C)CCC(O)[C@@](C)(CO)C5CC[C@]43C)C12` (stereo partly drawn) [GAG-C73, 3,23-dihydroxyl-12(13)-en-Lup-20(29)-en-28-oic acid], the ERK phosphorylation entry in test [1] was “induced ERK phosphorylation”. For the same compound, in test [2], the “cell survival of cortical neurons treated with Aβ25-35 (MTT)” value was “promoted cell survival”. For the same compound, the “cell death compared to the DMSO control (LDH)” value is reported as “significant reduction in cell death” in test [3]; “significant reduction in cell death” in test [4] (30 μM, NMDA 5-100 μM, at toxic dosages of NMDA); “significant dose-dependent reduction in cell death” in test [4] (varying concentrations pre-treated 2 hrs, NMDA 20 μM). The “NMDA-induced current (peak and plateau)” value in the test on NMDA receptor (30 μM co-treatment with NMDA) was “reduced the current induced by NMDA, for both peak and plateau currents”. Moreover, the “NMDA-induced current with increasing doses” value in the test on NMDA receptor is given as “further decreased the NMDA-induced current”. Moreover, in test [4] (30-50 μM pre-treated 2 hours, NMDA 20 min (FIG. 17)), the “neuronal survival following NMDA treatment (LDH)” value is “promoted neuronal survival”.

Consider `C/C=C/c1ccc2c(c1)OC(c1ccc(O)c(OC)c1)C(C)O2` (stereo not drawn) [GAG-C69, 3-methoxyl-4-hydroxyl-(7′-E)-5′7-epoxy-8,4′-oxyneolignane-7′ en], for which the “CRE-dependent transcription activity (luciferase)” value in test [5] was “enhances CRE-dependent transcription”. Besides, in test [2], the “cell survival of cortical neurons treated with Aβ25-35 (MTT)” value is recorded as “promoted cell survival”. Besides, the “survival of neurons against Aβ insult (MTT)” value in test [2] (various concentrations, Aβ25-35 10 μM) is “increases the survival of neurons against Aβ insult comparable to control levels”. For the same compound, the “expression level of cleaved-caspase-3 (17 kDa, active form)” value with cleaved-caspase-3 was “significantly decreased to levels comparable to that without Aβ”.
